# Tests used:
# [1] = test system: SK-MEL-1 human melanoma; assay: SPECT/CT imaging of mice bearing SK-MEL-1 human melanoma; format: in vivo, NRG mice; conditions: 24 h p.i.
# Protocol: SPECT/CT imaging experiments were conducted using the same conditions as described in Example 3. […] (FIG. 6).
# [2] = test system: B16F10 mouse melanoma; assay: SPECT/CT imaging of mice bearing B16F10 mouse melanoma; format: in vivo, C57BL/6J mice; conditions: 24 h p.i.
# Protocol: SPECT/CT imaging experiments were conducted using a preclinical U-SPECT-II/CT scanner (MILabs). For SPECT scans, each tumour-bearing mouse was injected with approximately 37 MBq of ^177Lu-labeled αMSH analogues via tail vein under anesthesia. After the injection, mice were allowed to recover and roam freely in their cages. At 1, 4, 24, and 120 h p.i., the mice were sedated again with 2% isoflurane inhalation and positioned in the scanner, and kept warm by a heating pad. A 3 min CT scan was conducted to acquire anatomical information, followed by a 60 min static emission scan in list mode with an extra ultrahigh-sensitivity multipinhole mouse collimator. The images were reconstructed using the ordered subset expectation maximization algorithm (4 iterations, 32 subsets) and a 1 mm post-processing Gaussian filter. The radioactivity in the SPECT scans were decay corrected to the injection time in the PMOD software, and converted to DICOM for quantitation and visualization in the Inveon Research Workplace software (Siemens). SPECT images of all six αMSH analogues radiolabeled with ^177Lu in mice bearing B16F10 mouse melanoma at 24 h p.i. are showing in FIG. 5. […] The sustained tumour uptake is particularly beneficial for radioligand therapy.
smiles,measurement,setting,value
"CCCC[C@H](NC(=O)CN1CCC(NC(=O)[C@H](CCCCNC(=O)CN2CCN(CC(=O)O)CCN(CC(=O)O)CCN(CC(=O)O)CC2)NC(=O)[C@H](CCC(=O)O)NC(=O)CCCc2ccc(I)cc2)CC1)C(=O)N[C@H]1CC(=O)NCCCC[C@@H](C(N)=O)N(C)C(=O)[C@H](Cc2c[nH]c3ccccc23)NC(=O)[C@H](CCCNC(=N)N)N(C)C(=O)[C@@H](Cc2ccccc2)NC(=O)[C@H](Cc2c[nH]cn2)NC1=O [^177Lu-labeled CCZ01118, metal not drawn]",Tumour uptake / retention in SPECT images,[1],lower tumour uptake was observed
same,Tumour visualization with SPECT imaging,[2],clearly visualized

# — patent US11395857B2, “Radiolabeled melanocortin 1 receptor-specific alpha-melanocyte-stimulating hormone analogues for imaging or therapy” (PROVINCIAL HEALTH SERVICES AUTHORITY, priority 2018, dated 2022)
